What was measured:
Nav1.8 ion channel = Nav1.8 ion channel (Homo sapiens (Human), UniProt Q9Y5Y9); assay: Inhibitory activity on Nav1.8 ion channel, whole-cell patch-clamp on HEK293/Nav1.8; format: cell-based; settings: HEK293/Nav1.8, whole-cell patch clamp, holding -80 mV, 1 μM TTX
Description: Reagents were purchased from Sigma (St. Louis, MO) except NaOH and KOH for acid-base titration. The final concentrations of the test compounds were all prepared on the day of the test and then dissolved in an extracellular fluid. The extracellular fluid (mM) was NaCl, 137; KCl, 4; CaCl2), 1.8; MgCl2, 1; HEPES, 10; glucose 10; and pH 7.4 (NaOH titration). All test and control compound solutions contained 1 μM TTX. The intracellular fluid (mM) was: aspartic acid, 140; magnesium chloride, 2; ethylene glycol tetraacetic acid (EGTA), 11; and N-2-hydroxyethylpiperazine-N′-2-ethanesulfonic acid (HEPES), 10. The pH was adjusted to 7.4 with cesium hydroxide.
The test compounds were dissolved in dimethylsulfoxide (DMSO) at a concentration of 9 mM. On the day of the test, the compounds were then dissolved in the extracellular fluid and prepared into the required concentration.
The cells were transferred to a perfusion chamber and perfusion was carried out using the extracellular fluid. The intracellular fluid was thawed on the day of the experiment. The electrodes were produced by pulling with PC-10 (Narishige, Japan). Whole-cell patch-clamp recording was carried out. Noise was filtered at one fifth of the sampling frequency. The intracellular fluid with ¼ length of the electrode tube was added into the electrode, and the electrode was installed on a probe. The required Protocol was set, the interface was adjusted to Membrane test, and Stage was adjusted to Bath. A positive pressure was applied in the electrode. The tip of the electrode was contacted with the cell. The three-way valve of the air extractor was adjusted to a three-way state. A negative pressure was then applied to the electrode, so that the electrode and the cell formed a high-resistance seal. Stage was adjusted to Patch, and leak was controlled within −200 pA. A negative pressure was successively applied, so that cell membranes were broken, and a current path was formed. Perfusion was carried out by opening the suction filtration device and the extracellular fluid valve. The cell current was observed, and administration was started when the cell current was stable (at least 3 sweep current curves were overlapped). Administration was performed from low concentration to high concentration. The administration time of each concentration was not less than 2 min, and when the current was stable, the concentration was changed for administration.
For administration of the test samples, perfusion was carried out using a perfusion system utilizing the self gravity. […] During the period, the CV % of all peak current amplitudes should be less than 10% to exclude up and down fluctuations of the initial current. The average of the peak current amplitudes recorded for the last 10 times during the initial recording served as the current peak of the negative control. After the initial current was stable, the test samples were dosed starting from a low concentration until the 10 recorded peak currents were again stable or the peak currents were “constant” after and before administration after continuous administration for 5 min. We defined the following two cases as “stable” or “constant”: 1) if the absolute average of the peak current for 10 consecutive scans exceeded 200 pA and the CV value was less than 10%, 2) or the average of the peak current for 10 consecutive scans was between 200 pA and 50 pA and the CV value was less than 30%. The next detection of higher concentration was then given.
The average of the peak current of the last 10 scans of each concentration was taken as the peak current for that concentration for data analysis. If the stable state was not reached within 5 min, the peak current average of the last 10 scans at that time was used for data analysis as the peak current for that concentration. At the same time, the cells were discarded and no longer used for detection of higher concentration. At least two cells were tested per concentration of the compounds. […]

[1] = Pharmacokinetic assay in mice; format: in vivo; settings: male, ICR, mouse, plasma, oral intragastric administration, 10 mg/kg
Description: Pharmacokinetic assay in mice was performed, wherein the mice used were 3 male ICR mice and fasted overnight. The mice were orally intragastrically dosed with the medicament (10 mg/kg). Blood was collected before administration and at 15 min, 30 min and 1 h, 2 h, 4 h, 6 h, 8 h, and 24 h after administration. Blood samples were centrifuged at 8000 rpm for 6 min at 4° C., and plasma was collected and stored at −20° C. The plasma at each time point was taken, and 3-5 times its amount of an acetonitrile solution containing an internal standard was added for mixing. The mixture was vortexed for 1 min and then centrifuged at 13000 rpm at 4° C. for 10 min. The supernatant was taken, and 3 times its amount of water was added for mixing. A proper amount of the resulting mixture was taken for LC-MS/MS analysis. The major pharmacokinetic parameters were analyzed using a non-compartmental model in the WinNonlin 7.0 software.

Row | SMILES | IC50 (Nav1.8 ion channel) | AUC(0-t) [1] | Cmax [1] | Tmax [1] | half-life [1]
1 | O=C(Nc1cnc[n+]([O-])c1)c1cc(Cl)c(C(F)(F)F)cc1Oc1ccc(OC(F)(F)F)cc1 [Compound I-2, 5-(5-Chloro-2-(4-(trifluoromethoxy)phenoxy)-4-(trifluoromethyl)benzamido)pyrimidine-1-oxide] | 11 nM |  |  |  | 
2 | O=C(Nc1ccc[n+]([O-])c1)c1cc(Cl)c(C(F)(F)F)cc1Oc1ccc(SC(F)(F)F)cc1 [Compound I-15] |  | 539000 ng·h/mL | 30000 ng/mL | 8 h | 34 h
3 | COc1cc(OC(F)(F)F)ccc1Oc1cc(Cl)c(Cl)cc1C(=O)Nc1cnc[n+]([O-])c1 [Compound I-18, 5-(4,5-dichloro-2-(2-methoxy-4-(trifluoromethoxy)phenoxy)benzamido)pyrimidine 1-oxide] | 2.4 nM | 3340 ng·h/mL | 1390 ng/mL | 0.5 h | 1.22 h
4 | O=C(Nc1cnc[n+]([O-])c1)c1c(Oc2ccc(OC(F)(F)F)cc2)cc(Cl)c(Cl)c1F [Compound I-19, 5-(3,4-Dichloro-2-fluoro-6-(4-(trifluoromethoxy)phenoxy)benzamido)pyrimidine 1-oxide] | 0.98 nM | 19200 ng·h/mL | 8880 ng/mL | 0.5 h | 2 h
5 | O=C(Nc1cnc[n+]([O-])c1)c1c(Oc2ccc(OC(F)(F)F)cc2)ccc(C(F)(F)F)c1F [Compound I-20, 5-(2-fluoro-6-(4-(trifluoromethoxy)phenoxy)-3-(trifluoromethyl)benzamido)pyrimidine 1-oxide] |  | 96200 ng·h/mL | 8010 ng/mL | 4 h | 2.87 h
6 | [2H]C([2H])([2H])Oc1cc(F)ccc1Oc1cc(Cl)c(Cl)cc1C(=O)Nc1cnc[n+]([O-])c1 [Compound I-21, 5-(4,5-dichloro-2-(4-fluoro-2-(trideuteromethoxy)phenoxy)benzamido)pyrimidine 1-oxide] |  | 2490 ng·h/mL | 1400 ng/mL | 0.5 h | 1.32 h
7 | O=C(Nc1ccc[n+]([O-])c1)c1cc(Cl)c(Cl)cc1Oc1ccc(F)c2c1OC(F)(F)O2 [Compound I-22, 3-(4,5-Dichloro-2-((2,2,7-trifluorobenzo[d][1,3]dioxol-4-yl)oxy)benzamido)-pyridine 1-oxide] | 8.15 nM | 12700 ng·h/mL | 3090 ng/mL | 1 h | 2.88 h
8 | O=C(Nc1cnc[n+]([O-])c1)c1c(Oc2ccc(OC(F)F)cc2)cc(C(F)(F)F)c(Cl)c1F [Compound I-25, 5-(3-Chloro-6-(4-(difluoromethoxy)phenoxy)-2-fluoro-4-(trifluoromethyl)benzamido)pyrimidine 1-oxide] | 2.9 nM |  |  |  | 
9 | [2H]C([2H])([2H])Oc1cc(F)c(F)cc1Oc1cc(C(F)(F)F)c(Cl)c(F)c1C(=O)Nc1cnc[n+]([O-])c1 [Compound I-28, 5-(3-chloro-6-(4,5-difluoro-2-(methoxy-d3)phenoxy)-2-fluoro-4-(trifluoromethyl)benzamido)pyrimidine 1-oxide] | 1.3 nM |  |  |  | 
10 | Cc1cc(F)ccc1Oc1cc(C(F)(F)F)c(Cl)cc1C(=O)Nc1cnc[n+]([O-])c1 [Compound I-31, 5-(5-chloro-2-(4-fluoro-2-methylphenoxy)-4-(trifluoromethyl)benzamido)pyrimidine 1-oxide] | 9.75 nM |  |  |  | 
11 | O=C(Nc1ccc[n+]([O-])c1)c1c(Oc2ccc(F)c3c2OC(F)(F)O3)cc(Cl)c(Cl)c1F [Compound I-32, 3-(3,4-Dichloro-2-fluoro-6-((2,2,7-trifluorobenzo[d][1,3]dioxol-4-yl)oxy)benzamido)pyridine-1-oxide] | 0.71 nM |  |  |  | 
12 | Cc1cc(F)ccc1Oc1cc(C(F)(F)F)c(Cl)c(F)c1C(=O)Nc1cnc[n+]([O-])c1 [Compound I-34, 5-(3-chloro-2-fluoro-6-(4-fluoro-2-methylphenoxy)-4-(trifluoromethyl)benzamido)pyrimidine 1-oxide] | 1.4 nM |  |  |  | 

From US20260022100A1, “NAV1.8 INHIBITOR” (Wuhan Humanwell Innovative Drug Research and Development …, priority 2022, published 2026)
